# Laboratory results reported in patent US20170275344A1, “POLYPEPTIDES AND USES THEREOF AS A DRUG FOR TREATMENT OF AUTOIMMUNE DISORDERS” (Compugen Ltd., priority 2014, published 2017).
# “Also recorded” adds a separate entry of the source.
# Legend:
# [1] = system: psoriasis patients; settings: cited from earlier work
# [2] = system: male DBA-1 mice; test: Established collagen-induced arthritis (CIA), therapeutic regimen; type: in vivo, mouse
# Method: Bovine type II collagen (CII) (RUNMC in house production, batch 03-04-08) at a concentration of 2 mg/ml in acetic acid 0.05M was emulsified in equal volumes of Freund's complete adjuvant (2 mg/ml of Mycobacterium tuberculosis strain H37Ra; Difco, Detroit, Mich.).
# On day 0, 10-12 week old male DBA-1 mice (Janvier Elevage, France) (n=95) were immunized i.d. at the base of the tail with 100 μg of bovine CII. On day 21, mice received an intraperitoneal booster injection of 50 μg of CII dissolved in phosphate buffered saline (PBS), and the onset of arthritis occurred a few days after this booster.
# Joint inflammation in each paw was scored visually, using a scale of 0-2 per paw with a maximal score of 8 per animal: 0=non inflamed, 1=mild inflammation, 1.5=marked inflammation, and 2=severe inflammation. Scoring was performed three times a week.
# Treatment was started in established CIA early after onset of disease (i.e. therapeutic regimen), when the macroscopic scores per animal were between 0.25 and 1.25 (on a scale of 0-8). The i.p. injections were given three times per week for two weeks, after which the study was terminated and mice were terminally bled to collect serum. Thereafter, the knee and ankle joints were collected and stored in formalin. Histology was scored for inflammation and destruction on an arbitrary scale of 0-3, for five different parameters: • Joint inflammation • Cartilage proteoglycan (PG) depletion • Chondrocyte death • Cartilage erosion • Bone erosion
# 1. Negative control: PBS 2. Negative control mIgG2A (Bioxcell, BE0085): 10 mg/kg 3. C1ORF32 ECD-Fc (SEQ ID NO:42): 10 mg/kg 4. C1ORF32 ECD-Fc (SEQ ID NO:42): 5 mg/kg 5. Positive control: Enbrel (Wyeth, F01421) 5 mg/kg
# Joints were fixed for at least 4 days in 4% formaldehyde, decalcified in 5% formic acid, and subsequently dehydrated and embedded in paraffin. Standard frontal sections of 7 μm were mounted on SuperFrost slides (Menzel-Glaser, Braunschweig, Germany). Haematoxylin and eosin (H&E) staining was performed to study joint inflammation. The severity of inflammation in the joints was scored on a scale of 0-3 (0=no cells, 1=mild cellularity, 2=moderate cellularity, and 3=maximal cellularity). To study proteoglycan (PG) depletion from the cartilage matrix, sections were stained with safranin O (SO) followed by counterstaining with fast green. Depletion of PG was determined using an arbitrary scale of 0-3, ranging from normal, fully stained cartilage to destained cartilage, fully depleted of PGs. Chondrocyte death was scored on a scale of 0-3 ranging from no loss of chondrocyte nuclei to complete empty cartilage surface. The degree of cartilage surface erosion was scored on a scale of 0-3, ranging from no damage to complete loss of articular cartilage. Bone destruction was graded separately on a scale of 0-3, ranging from no damage to the complete loss of bone structure. Histopathological changes in the joint were scored on three semiserial sections of the joint spaced 70 μm apart. Scoring was performed in a blindfolded manner.
# Statistical analysis: Disease course data was analyzed using one-way ANOVA with repeated measures, with a Bonferroni's post-test of selected pairs to determine statistical differences between C1ORF32 ECD-Fc (SEQ ID NO:42) and Enbrel treated mice, each as compared to Control Ig (IgG2a) treated group.
# [3] = system: healthy human skin transplanted onto beige-SCID mice; test: Humanized psoriasis model: healthy human skin xenotransplants on beige-SCID mice injected with psoriatic patients' PBMCs; type: in vivo, mouse
# From the text: In this model, psoriasis is induced in xenotransplants of healthy human skin transplanted onto beige severe combined immunodeficiency (SCID) mice followed by intradermal (i.d.) injection of IL-2 enriched Peripheral Blood Mononuclear Cells (PBMCs) isolated from blood of psoriasis patients (Nickoloff, 1995; Wrone-Smith, 1996 Gilhar et al., 2002, 2006, 2011). The activity of these compounds was compared to that of Enbrel, a TNF inhibitor which is an approved biological drug for treatment of psoriasis. As a control for model robustness, we used dexamethasone, a steroid with suppressive effects on inflammatory cytokines and chemokines such as TNF-alpha and interferon-gamma which cause severe psoriasis. All treatments were administered intradermally, except for dexamethasone which was given topically.
# Study Protocol: A) Healthy human skin pieces with a width of 0.4 mm and surface area of 1.5×1.5 cm were provided from residual skin of routine plastic surgery procedures from the Plastic Surgery Department of the Rambam Medical Center, Israel. In addition, 20 mL blood samples were taken from psoriatic patients. B) Seventy (70) beige-severe combined immunodeficient mice (SCID) (weight˜20-25 g) were included in this study. Normal healthy human donor skin was transplanted onto the beige-SCID mice as previously described (Nickoloff et al., 1995; Wrone-Smith, 1996; Gilhar et al., 2002, 2006, 2011; Kalish et al., 2009) and the mice were divided into 7 groups. C) Peripheral Blood Mononuclear Cells (PBMCs) isolated from psoriatic patients' blood were cultured in the presence of IL-2 [Prospec, 100 U/mL of RPMI 1640 media, 10% human AB serum (Sigma, St. Louis, Mo.), 1% glutamine, 1% antibiotics (media components; Biological Industries, Kibbutz Beit Haemeck, Israel)] for 14 days, as previously described (Gilhar et al, 2002). D) Four weeks following engraftment, each mouse was injected intra-dermally (i.d.) into the grafted skin lesion, with 1×10^7 activated allogeneic enriched PBMCs from psoriatic patients (FIG. 20). Cells from different psoriasis patients were equally distributed between treatment groups so that each patient is represented in each treatment group. E) On the day of PBMCs injection into the skin grafts, mice were divided randomly into treatment groups (n=9-10 mice per group) and administration of all drugs started (FIG. 20). All tested compounds including the vehicle were given intradermally (intralesional), three times a week, except for dexamethasone which was given topically for 14 consecutive days (Table 3).
# F) Twenty eight days after starting the injections and treatment, skin was harvested (FIG. 20). Grafts were analyzed for the following psoriatic parameters by histology: epidermal thickening (acanthosis), suprapapillary epidermal thinning (papillomatosis), hyperkeratosis, parakeratosis, orthokeratosis, agranulosis-hypogranulosis, appearance of neutrophils in the upper spinous layer or in the corneal cell layer—Munro microabscess, regular elongation of rete ridges, angiogenesis, edema and dilated tortuous blood vessels in the dermal papilla and mononuclear cell infiltrate in the papillary dermis. Epidermal thickness was measured as detailed below, and HLA-DR, ICAM-1, Ki-67 and immune infiltrates (anti-CD3 stain) were evaluated by immunohistochemistry (IHC).
# The entire skin graft was excised and placed in 10% formal saline overnight. Then, the specimens were place in 70% ethanol and were embedded according to the standard H&E protocol. Histological assessment of the skin grafts was performed by light microscopy and evaluated by two blinded observers [the second observer evaluated random slides (about 25% of all slides) to compare the data obtained by the first observer. […] Epidermal thickness was determined with an ocular micrometer at a minimum of 50 points along the epidermis selected to represent points of maximal and minimal thickness.
# Representative grafts were allocated for IHC analysis. […]
# [4] = 28 days after start of treatment
substance,measurement,setting,value
Enbrel,patients achieving 75% improvement in the psoriasis area-and-severity index (PASI 75),[1]; at week 12,Forty nine
same,patients achieving PASI 90,[1]; clinical trials,22%
same,bone erosions (histology),"[2]; 5 mg/kg, day 14",significant reduction of bone erosions
same,other histological parameters of inflammation and cartilage damage,"[2]; 5 mg/kg, day 14",only a trend for protection
same,arthritis (macroscopic) scores,"[2]; positive control, 5 mg/kg i.p. 3x/wk for 2 wks",not as potent in reducing the arthritis scores as expected
same,Healthy Skin (number of grafts),[3]; [4],3/9
same,"Psoriasiform Skin (number of affected grafts, histological evaluation)",[3]; [4],6/9
same,Total No. of Healthy Grafts (%),[3]; [4],33%
same,proliferation index (% Ki-67 positive cells) in the xenografted skin,"[3]; IHC, vs vehicle treated group",trend of decrease in proliferation index
same,Epidermal thickness of graft,[3]; Source of graft (Patient),683 μm
same,Epidermal thickness of graft,[3]; Source of graft (Patient) B,658 μm
same,Epidermal thickness of graft,[3]; Source of graft (Patient) C,770 μm
same,Epidermal thickness of graft,[3]; Source of graft (Patient) D,679 μm
same,Epidermal thickness of graft,[3]; Source of graft (Patient) E,678 μm
same,Epidermal thickness of graft,[3]; Source of graft (Patient) G1,830 μm
same,Epidermal thickness of graft,[3]; Source of graft (Patient) H,496 μm
same,Epidermal thickness of graft,[3]; Source of graft (Patient) K,296 μm
same,Epidermal thickness of graft,[3]; Source of graft (Patient) P,492 μm
same,"Epidermal thickness of grafts, Mean","[3]; mean of 9-10 mice, PBS mean 682",620 μm
same,epidermal thickness compared with the vehicle-treated group,[3]; one-tailed t-Test,no substantial effect on epidermal thickness; also recorded: no significant reduction in epidermal thickness
